Literature values as cited in paper PMC12177174 (iScience, 2025).

How the values were obtained:
tumor cell proliferation = details: cited from earlier work
Axin2 mRNA = details: cited from earlier work
bone mineral density = details: cited from earlier work
skin fibrosis = details: cited from earlier work
[1] = 20 patients, median 22 weeks treatment; cited from earlier work
[2] = cited from earlier work
heart repair = details: cited from earlier work

SMILES	tumor cell proliferation (tumor cell proliferation)	mean reduction in AXIN2 mRNA levels in skin biopsies (Axin2 mRNA)	bone mineral density (bone mineral density)	skin fibrosis (skin fibrosis)	patients who developed fragility fractures [1] [%]	participants reporting dysgeusia [2] [%]	participants with reduced tumor size ([2]; various advanced cancers) [%]	heart repair following cardiac injury (heart repair)
Cc1c(-c2ccnc(C(F)(F)F)c2)ncn1CC(=O)Nc1ccc(-c2cnccn2)cn1 [RXC004]	inhibits tumor cell proliferation							
Cc1cc(-c2ncc(CC(=O)Nc3ccc(-c4cnccn4)cn3)cc2C)ccn1 [WNT974]		50%–60%	caused loss of bone mineral density	prevented progression of skin fibrosis	45	≤ 50	74	promoted heart repair
